Measured values from patent publication US20020137929A1, “1 - (3-heterocyclylphenyl) isothiourea, -isourea, -guanidine and -amidine herbicidal agents” (Intellectual Property Department, BASF Aktiengesellschaft, priority 1998, published 2002).

Tests used:
[1] = test system: ABUTH (Velvetleaf); assay: Postemergence herbicidal evaluation; type: in vivo, Abutilon theophrasti; settings: for ABUTH herbicidal rating: postemergence
Outline: (§1)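 Young plants, roughly two weeks from seeding, receive the active ingredient as a sprayed dispersion (acetone/water 50/50, 0.5% TWEEN 20) at 40 psi. Doses span about 0.0156 to 0.500 kg/ha. A visual score from 0 to 9 compares treated with control plants four to five weeks on.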

[2] = test system: CHEAL (Lambsquarters, Common); assay: Postemergence herbicidal evaluation; type: in vivo, Chenopodium album; settings: for CHEAL herbicidal rating: postemergence
Outline: as §1

[3] = test system: SETVI (Foxtail, Green); assay: Postemergence herbicidal evaluation; type: in vivo, Setaria viridis; settings: for SETVI herbicidal rating: postemergence
Outline: as §1

[4] = test system: GLXMAW (Soybean, Williams); assay: Postemergence herbicidal evaluation; type: in vivo, Glycine max, (L.) Merr. cv Williams; settings: for GLXMAW herbicidal rating: postemergence
Outline: as §1

[5] = test system: ORYSAT (Rice, Tebonnet); assay: Postemergence herbicidal evaluation; type: in vivo, Oryza sativa, (L.) Tebonnet; settings: for ORYSAT herbicidal rating: postemergence
Outline: as §1

[6] = test system: TRZAWR (Wheat, Winter, cv Riband); assay: Postemergence herbicidal evaluation; type: in vivo, Triticum aestivum; settings: for TRZAWR herbicidal rating: postemergence
Outline: as §1

[7] = test system: ZEAMX (Corn, Field); assay: Postemergence herbicidal evaluation; type: in vivo, Zea mays; settings: for ZEAMX herbicidal rating: postemergence
Outline: as §1

[8] = test system: AMBEL (Ragweed, Common); assay: Preemergence herbicidal evaluation; type: in vivo, Ambrosia artemisifolia; settings: rated 4-5 weeks after treatment
Outline: (§2)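 Steps: mix seeds into potting soil; plant atop ~1 inch soil; spray compound in aqueous acetone (~0.0156-0.500 kg/ha equivalent); maintain in greenhouse with watering; rate visually 0-9 versus control at 4-5 weeks.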

[9] = test system: GALAP (Galium); assay: Preemergence herbicidal evaluation; type: in vivo, Galium aparine; settings: rated 4-5 weeks after treatment
Outline: as §2

[10] = test system: SETVI (Foxtail, Green); assay: Preemergence herbicidal evaluation; type: in vivo, Setaria viridis; settings: rated 4-5 weeks after treatment
Outline: as §2

[11] = test system: CYPIR (Rice Flatsedge); assay: Preemergence weed control under flooded paddy conditions; type: in vivo, Cyperus iria; settings: rated 3-4 weeks after treatment
Outline: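 Ratings on a 0-9 visual scale cover stand, vigor, malformation, size, chlorosis and overall appearance relative to a control, taken three to four weeks post-treatment. Application was into flood water over freshly sown silt loam at roughly 0.0313 to 0.500 kg/ha.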

[12] = test system: ECHORC (Watergrass (Calif.)); assay: Postemergence weed control under flooded paddy conditions; type: in vivo, Echinochloa oryzoides; settings: postemergence weeds
Outline: (§3)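 Injury ratings (0–9 scale covering stand, vigor, malformation, size, chlorosis and overall appearance versus control) were made three to four weeks after treatment. Test material, about 0.0313 to 0.500 kg/ha a.i. in 50/50 v/v aqueous/acetone, was added to flood water 1.5 to 3 cm deep over 3 to 5 cm weeds and 1.5 to 2.5 leaf rice.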

[13] = test system: CYPSE (Flatsedge); assay: as above; type: in vivo, Cyperus serotinus; settings: postemergence weeds
Outline: as §3

[14] = test system: SAGPY (Arrowhead (Pygmaea)); assay: as above; type: in vivo, Sagittaria pygmaea; settings: postemergence weeds
Outline: as §3

[15] = Rate 0.0625 kg/ha, rated 3 to 4 weeks after treatment
[16] = rate 0.1250 kg/ha, 3-4 weeks after treatment
[17] = rate 0.2500 kg/ha, 3-4 weeks after treatment
[18] = rate 0.0313 kg/ha, 3-4 weeks after treatment
[19] = rate 0.0625 kg/ha, 3-4 weeks after treatment

C#CCOC(=O)CC1SC(=Nc2cc(-n3c(=O)cc(C(F)(F)F)n(C)c3=O)c(F)cc2Cl)N(CC(=O)OCC)C1=O (stereo not drawn) [Compound 59, 2-{{2-Chloro-5-[3,6-dihydro-3-methyl-2,6-dioxo-4-(trifluoromethyl)-1(2H)-pyrimidinyl]-4-fluorophenyl}imino}-4-oxo-3,5-thiazolidinediacetic acid, 3-ethyl (2-propynyl) ester]
0.0: Preemergence herbicidal rating GALAP ([9]; rate 0.0156 kg/ha) | Preemergence herbicidal rating GALAP ([9]; rate 0.0313 kg/ha) | Preemergence herbicidal rating SETVI ([10]; rate 0.0156 kg/ha) | Preemergence herbicidal rating SETVI ([10]; rate 0.0313 kg/ha) | CYPIR herbicidal effect rating ([11]; 0.0625 kg/ha) | CYPIR herbicidal effect rating ([11]; 0.1250 kg/ha) | Herbicidal rating CYPSE [13, 15] | Herbicidal rating CYPSE [13, 16] | Herbicidal rating SAGPY [14, 15] | Herbicidal rating SAGPY [14, 16]
1.5: Preemergence herbicidal rating SETVI ([10]; rate 0.0625 kg/ha)
2.0: Preemergence herbicidal rating AMBEL ([8]; rate 0.0156 kg/ha)
9.0: Postemergence herbicidal rating ABUTH ([1]; Rate 0.0158 kg/ha) | Postemergence herbicidal rating ABUTH ([1]; Rate 0.0315 kg/ha) | Postemergence herbicidal rating ABUTH ([1]; Rate 0.0630 kg/ha) | Postemergence herbicidal rating CHEAL ([2]; Rate 0.0158 kg/ha) | Postemergence herbicidal rating CHEAL ([2]; Rate 0.0315 kg/ha) | Postemergence herbicidal rating CHEAL ([2]; Rate 0.0630 kg/ha) | Postemergence herbicidal rating SETVI ([3]; Rate 0.0158 kg/ha) | Postemergence herbicidal rating SETVI ([3]; Rate 0.0315 kg/ha) | Postemergence herbicidal rating SETVI ([3]; Rate 0.0630 kg/ha) | Postemergence herbicidal rating GLXMAW ([4]; Rate 0.0315 kg/ha) | Postemergence herbicidal rating GLXMAW ([4]; Rate 0.0630 kg/ha) | Postemergence herbicidal rating TRZAWR ([6]; Rate 0.0630 kg/ha) | Preemergence herbicidal rating AMBEL ([8]; rate 0.1250 kg/ha) | Preemergence herbicidal rating AMBEL ([8]; rate 0.2500 kg/ha) | Preemergence herbicidal rating AMBEL ([8]; rate 0.5000 kg/ha) | Preemergence herbicidal rating GALAP ([9]; rate 0.2500 kg/ha) | Preemergence herbicidal rating SETVI ([10]; rate 0.2500 kg/ha) | Preemergence herbicidal rating SETVI ([10]; rate 0.5000 kg/ha) | CYPIR herbicidal effect rating ([11]; 0.2500 kg/ha)
7.5: Postemergence herbicidal rating ZEAMX ([7]; Rate 0.0158 kg/ha)
8.5: Postemergence herbicidal rating ZEAMX ([7]; Rate 0.0630 kg/ha)
4.5: Postemergence herbicidal rating ORYSAT ([5]; Rate 0.0158 kg/ha)
5.5: Postemergence herbicidal rating ORYSAT ([5]; Rate 0.0630 kg/ha)
3.5: Preemergence herbicidal rating AMBEL ([8]; rate 0.0313 kg/ha)
3.0: Herbicidal rating SAGPY [14, 17]
5.0: Herbicidal rating ECHORC [12, 16]
6.5: Preemergence herbicidal rating AMBEL ([8]; rate 0.0625 kg/ha)
6.0: Postemergence herbicidal rating ORYSAT ([5]; Rate 0.0315 kg/ha) | Preemergence herbicidal rating GALAP ([9]; rate 0.0625 kg/ha)
7.0: Preemergence herbicidal rating GALAP ([9]; rate 0.1250 kg/ha) | Herbicidal rating ECHORC [12, 17] | Herbicidal rating CYPSE [13, 17]
4.0: Herbicidal rating ECHORC [12, 15]
8.0: Postemergence herbicidal rating GLXMAW ([4]; Rate 0.0158 kg/ha) | Postemergence herbicidal rating TRZAWR ([6]; Rate 0.0158 kg/ha) | Postemergence herbicidal rating TRZAWR ([6]; Rate 0.0315 kg/ha) | Postemergence herbicidal rating ZEAMX ([7]; Rate 0.0315 kg/ha) | Preemergence herbicidal rating SETVI ([10]; rate 0.1250 kg/ha)

C=CCN1C(=O)CSC1=Nc1cc(-n2c(=O)cc(C(F)(F)F)n(C)c2=O)c(F)cc1Cl [Compound 27]
7.5: GLXMAW herbicidal rating ([4]; rate 0.0630 kg/ha)
3.0: TRZAWR herbicidal rating ([6]; rate 0.0158 kg/ha) | Herbicidal rating CYPIR ([11]; 0.0313 kg/ha)
5.0: ZEAMX herbicidal rating ([7]; rate 0.0158 kg/ha)
2.5: ORYSAT herbicidal rating ([5]; rate 0.0315 kg/ha)
5.5: ZEAMX herbicidal rating ([7]; rate 0.0315 kg/ha)
7.0: Preemergence herbicidal rating AMBEL ([8]; rate 0.2500 kg/ha) | Herbicidal rating ECHORC [12, 19]
6.0: CHEAL herbicidal rating ([2]; rate 0.0158 kg/ha) | CHEAL herbicidal rating ([2]; rate 0.0315 kg/ha) | GLXMAW herbicidal rating ([4]; rate 0.0158 kg/ha) | Herbicidal rating CYPIR ([11]; 0.1250 kg/ha) | Herbicidal rating ECHORC [12, 18]
6.5: GLXMAW herbicidal rating ([4]; rate 0.0315 kg/ha) | ZEAMX herbicidal rating ([7]; rate 0.0630 kg/ha)
0.0: Preemergence herbicidal rating AMBEL ([8]; rate 0.0156 kg/ha) | Preemergence herbicidal rating GALAP ([9]; rate 0.0156 kg/ha) | Preemergence herbicidal rating SETVI ([10]; rate 0.0156 kg/ha) | Herbicidal rating CYPSE [13, 18] | Herbicidal rating CYPSE [13, 19] | Herbicidal rating CYPSE [13, 16] | Herbicidal rating SAGPY [14, 18] | Herbicidal rating SAGPY [14, 19]
4.0: SETVI herbicidal rating ([3]; rate 0.0315 kg/ha) | TRZAWR herbicidal rating ([6]; rate 0.0315 kg/ha) | Herbicidal rating CYPIR ([11]; 0.0625 kg/ha) | Herbicidal rating SAGPY [14, 16] | Herbicidal rating SAGPY [14, 17]
2.0: SETVI herbicidal rating ([3]; rate 0.0158 kg/ha) | ORYSAT herbicidal rating ([5]; rate 0.0158 kg/ha) | Preemergence herbicidal rating AMBEL ([8]; rate 0.0313 kg/ha) | Preemergence herbicidal rating AMBEL ([8]; rate 0.0625 kg/ha)
4.5: ORYSAT herbicidal rating ([5]; rate 0.0630 kg/ha) | TRZAWR herbicidal rating ([6]; rate 0.0630 kg/ha)
9.0: ABUTH herbicidal rating ([1]; rate 0.0158 kg/ha) | ABUTH herbicidal rating ([1]; rate 0.0315 kg/ha) | ABUTH herbicidal rating ([1]; rate 0.0630 kg/ha) | CHEAL herbicidal rating ([2]; rate 0.0630 kg/ha) | SETVI herbicidal rating ([3]; rate 0.0630 kg/ha) | Preemergence herbicidal rating AMBEL ([8]; rate 0.1250 kg/ha) | Preemergence herbicidal rating GALAP ([9]; rate 0.0313 kg/ha) | Preemergence herbicidal rating GALAP ([9]; rate 0.0625 kg/ha) | Preemergence herbicidal rating GALAP ([9]; rate 0.1250 kg/ha) | Preemergence herbicidal rating GALAP ([9]; rate 0.2500 kg/ha) | Preemergence herbicidal rating SETVI ([10]; rate 0.0313 kg/ha) | Preemergence herbicidal rating SETVI ([10]; rate 0.0625 kg/ha) | Preemergence herbicidal rating SETVI ([10]; rate 0.1250 kg/ha) | Preemergence herbicidal rating SETVI ([10]; rate 0.2500 kg/ha) | Herbicidal rating CYPIR ([11]; 0.2500 kg/ha) | Herbicidal rating ECHORC [12, 16] | Herbicidal rating ECHORC [12, 17] | Herbicidal rating CYPSE [13, 17]
